Assay results as given in patent US20020137929A1, “1 - (3-heterocyclylphenyl) isothiourea, -isourea, -guanidine and -amidine herbicidal agents” (Intellectual Property Department, BASF Aktiengesellschaft, priority 1998, published 2002).

Key:
[1] = tested on: CYPIR (Rice Flatsedge); test: Postemergence weed control under flooded paddy conditions; assay type: in vivo, Cyperus iria; conditions: postemergence weeds, 3-4 weeks after treatment
How it was run: (§1)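 Injury ratings (0–9 scale covering stand, vigor, malformation, size, chlorosis and overall appearance versus control) were made three to four weeks after treatment. Test material, about 0.0313 to 0.500 kg/ha a.i. in 50/50 v/v aqueous/acetone, was added to flood water 1.5 to 3 cm deep over 3 to 5 cm weeds and 1.5 to 2.5 leaf rice.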

[2] = tested on: CHEAL (Lambsquarters, Common); test: Postemergence herbicidal evaluation; assay type: in vivo, Chenopodium album; conditions: postemergence
How it was run: (§2)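 Scores (0–9) reflect plant stand, vigor, malformation, size, chlorosis and general appearance relative to control, read 4 to 5 weeks after treatment and averaged where tests were repeated. Application: about 0.0156–0.500 kg/ha sprayed at 40 psi onto two-week seedlings.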

[3] = tested on: IPOHE (Morningglory, Ivyleaf); test: Postemergence herbicidal evaluation; assay type: in vivo, Ipomoea hederacea; conditions: postemergence
How it was run: as §2

[4] = tested on: ORYSAT (Rice, Tebonnet); test: Postemergence herbicidal evaluation; assay type: in vivo, Oryza sativa, (L.) Tebonnet; conditions: postemergence
How it was run: as §2

[5] = tested on: ECHCG (Barnyardgrass); test: Postemergence herbicidal evaluation; assay type: in vivo, Echinochloa crus-galli; conditions: postemergence
How it was run: as §2

[6] = tested on: ABUTH (Velvetleaf); test: Postemergence herbicidal evaluation; assay type: in vivo, Abutilon theophrasti; conditions: postemergence
How it was run: as §2

[7] = tested on: ABUTH (Velvetleaf); test: Preemergence herbicidal evaluation; assay type: in vivo, Abutilon theophrasti; conditions: rated 4-5 weeks after treatment
How it was run: (§3)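 Test compound, dissolved in aqueous acetone, was sprayed over planted soil cups at an equivalent of about 0.0156 to 0.500 kg/ha; seeds had been mixed with potting soil. Greenhouse growth followed, with visual 0-9 scoring of injury at four to five weeks.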

[8] = tested on: ZEAMX (Corn, Field); test: Preemergence herbicidal evaluation; assay type: in vivo, Zea mays; conditions: rated 4-5 weeks after treatment
How it was run: as §3

[9] = tested on: ZEAMX (Corn, Field); test: Postemergence herbicidal evaluation; assay type: in vivo, Zea mays; conditions: postemergence
How it was run: as §2

[10] = tested on: TRZAWR (Wheat, Winter, cv Riband); test: Preemergence herbicidal evaluation; assay type: in vivo, Triticum aestivum; conditions: rated 4-5 weeks after treatment
How it was run: as §3

[11] = tested on: CHEAL (Lambsquarters, Common); test: Preemergence herbicidal evaluation; assay type: in vivo, Chenopodium album; conditions: rated 4-5 weeks after treatment
How it was run: as §3

[12] = tested on: GLXMAW (Soybean, Williams); test: Preemergence herbicidal evaluation; assay type: in vivo, Glycine max, (L.) Merr. cv Williams; conditions: rated 4-5 weeks after treatment
How it was run: as §3

[13] = tested on: IPOHE (Morningglory, Ivyleaf); test: Preemergence herbicidal evaluation; assay type: in vivo, Ipomoea hederacea; conditions: rated 4-5 weeks after treatment
How it was run: as §3

[14] = tested on: SETVI (Foxtail, Green); test: Postemergence herbicidal evaluation; assay type: in vivo, Setaria viridis; conditions: postemergence
How it was run: as §2

[15] = tested on: ECHCG (Barnyardgrass); test: Preemergence herbicidal evaluation; assay type: in vivo, Echinochloa crus-galli; conditions: rated 4-5 weeks after treatment
How it was run: as §3

[16] = tested on: CYPSE (Flatsedge); test: Postemergence weed control under flooded paddy conditions; assay type: in vivo, Cyperus serotinus; conditions: postemergence weeds, 3-4 weeks after treatment
How it was run: as §1

[17] = tested on: CASOB (Sicklepod); test: Preemergence herbicidal evaluation; assay type: in vivo, Cassia obtusifolia; conditions: rated 4-5 weeks after treatment
How it was run: as §3

CCOC(=O)CN1C(=O)C(CC)SC1=Nc1cc(-n2c(=O)cc(C(F)(F)F)n(C)c2=O)c(F)cc1Cl (stereo not drawn) [Compound 13, Ethyl 2-{{2-chloro-5-[3,6-dihydro-3-methyl-2,6-dioxo-4-(trifluoromethyl)-1(2H)-pyrimidinyl]-4-fluorophenyl}imino}-5-ethyl-4-oxo-3-thiazolidineacetate]
Herbicidal rating CYPIR ([1]; rate 0.0313 kg/ha): 0.0 | Herbicidal rating CYPIR ([1]; rate 0.0625 kg/ha): 0.0 | Herbicidal rating CYPIR ([1]; rate 0.1250 kg/ha): 0.5 | Herbicidal rating CYPIR ([1]; rate 0.2500 kg/ha): 1.0 | CHEAL herbicidal rating ([2]; rate 0.0156 kg/ha): 9.0 | CHEAL herbicidal rating ([2]; rate 0.0313 kg/ha): 8.0 | CHEAL herbicidal rating ([2]; rate 0.0625 kg/ha): 9.0 | CHEAL herbicidal rating ([2]; rate 0.1250 kg/ha): 9.0 | IPOHE herbicidal rating ([3]; rate 0.0156 kg/ha): 9.0 | IPOHE herbicidal rating ([3]; rate 0.0313 kg/ha): 9.0 | IPOHE herbicidal rating ([3]; rate 0.0625 kg/ha): 9.0 | IPOHE herbicidal rating ([3]; rate 0.1250 kg/ha): 9.0 | ORYSAT herbicidal rating ([4]; rate 0.0156 kg/ha): 1.5 | ORYSAT herbicidal rating ([4]; rate 0.0313 kg/ha): 2.5 | ORYSAT herbicidal rating ([4]; rate 0.0625 kg/ha): 2.5 | ORYSAT herbicidal rating ([4]; rate 0.1250 kg/ha): 3.0 | ECHCG herbicidal rating ([5]; rate 0.0156 kg/ha): 2.0 | ECHCG herbicidal rating ([5]; rate 0.0313 kg/ha): 2.0 | ECHCG herbicidal rating ([5]; rate 0.0625 kg/ha): 3.0 | ECHCG herbicidal rating ([5]; rate 0.1250 kg/ha): 7.0 | ABUTH herbicidal rating ([6]; rate 0.0156 kg/ha): 9.0 | ABUTH herbicidal rating ([6]; rate 0.0313 kg/ha): 9.0 | ABUTH herbicidal rating ([6]; rate 0.0625 kg/ha): 9.0 | ABUTH herbicidal rating ([6]; rate 0.1250 kg/ha): 9.0 | ABUTH preemergence herbicidal rating ([7]; rate 0.0156 kg/ha): 6.0 | ABUTH preemergence herbicidal rating ([7]; rate 0.0313 kg/ha): 9.0 | ABUTH preemergence herbicidal rating ([7]; rate 0.0625 kg/ha): 9.0 | ABUTH preemergence herbicidal rating ([7]; rate 0.1250 kg/ha): 9.0 | ABUTH preemergence herbicidal rating ([7]; rate 0.2500 kg/ha): 9.0 | ZEAMX preemergence herbicidal rating ([8]; rate 0.0156 kg/ha): 0.0 | ZEAMX preemergence herbicidal rating ([8]; rate 0.0313 kg/ha): 2.0 | ZEAMX preemergence herbicidal rating ([8]; rate 0.0625 kg/ha): 4.0 | ZEAMX preemergence herbicidal rating ([8]; rate 0.1250 kg/ha): 5.0 | ZEAMX preemergence herbicidal rating ([8]; rate 0.2500 kg/ha): 7.0 | ZEAMX herbicidal rating ([9]; rate 0.0156 kg/ha): 7.0 | ZEAMX herbicidal rating ([9]; rate 0.0313 kg/ha): 7.0 | ZEAMX herbicidal rating ([9]; rate 0.0625 kg/ha): 7.5 | ZEAMX herbicidal rating ([9]; rate 0.1250 kg/ha): 8.0 | TRZAWR preemergence herbicidal rating ([10]; rate 0.0313 kg/ha): 1.0 | TRZAWR preemergence herbicidal rating ([10]; rate 0.0625 kg/ha): 1.0 | TRZAWR preemergence herbicidal rating ([10]; rate 0.1250 kg/ha): 4.0 | TRZAWR preemergence herbicidal rating ([10]; rate 0.2500 kg/ha): 6.0 | CHEAL preemergence herbicidal rating ([11]; rate 0.0156 kg/ha): 9.0 | CHEAL preemergence herbicidal rating ([11]; rate 0.0313 kg/ha): 9.0 | CHEAL preemergence herbicidal rating ([11]; rate 0.0625 kg/ha): 9.0 | CHEAL preemergence herbicidal rating ([11]; rate 0.1250 kg/ha): 9.0 | CHEAL preemergence herbicidal rating ([11]; rate 0.2500 kg/ha): 9.0 | GLXMAW preemergence herbicidal rating ([12]; rate 0.0156 kg/ha): 0.0 | GLXMAW preemergence herbicidal rating ([12]; rate 0.0313 kg/ha): 0.0 | GLXMAW preemergence herbicidal rating ([12]; rate 0.0625 kg/ha): 1.0 | GLXMAW preemergence herbicidal rating ([12]; rate 0.1250 kg/ha): 2.0 | GLXMAW preemergence herbicidal rating ([12]; rate 0.2500 kg/ha): 4.0 | IPOHE preemergence herbicidal rating ([13]; rate 0.0156 kg/ha): 2.5 | IPOHE preemergence herbicidal rating ([13]; rate 0.0313 kg/ha): 3.5 | IPOHE preemergence herbicidal rating ([13]; rate 0.0625 kg/ha): 9.0 | IPOHE preemergence herbicidal rating ([13]; rate 0.1250 kg/ha): 8.0 | IPOHE preemergence herbicidal rating ([13]; rate 0.2500 kg/ha): 9.0 | SETVI herbicidal rating ([14]; rate 0.0156 kg/ha): 0.0 | SETVI herbicidal rating ([14]; rate 0.0313 kg/ha): 4.0 | SETVI herbicidal rating ([14]; rate 0.0625 kg/ha): 4.0 | SETVI herbicidal rating ([14]; rate 0.1250 kg/ha): 9.0 | ECHCG preemergence herbicidal rating ([15]; rate 0.0156 kg/ha): 0.0 | ECHCG preemergence herbicidal rating ([15]; rate 0.0313 kg/ha): 0.0 | ECHCG preemergence herbicidal rating ([15]; rate 0.0625 kg/ha): 1.0 | ECHCG preemergence herbicidal rating ([15]; rate 0.1250 kg/ha): 7.0 | ECHCG preemergence herbicidal rating ([15]; rate 0.2500 kg/ha): 8.0 | Herbicidal rating CYPSE ([16]; rate 0.0313 kg/ha): 0.0 | Herbicidal rating CYPSE ([16]; rate 0.0625 kg/ha): 0.0 | Herbicidal rating CYPSE ([16]; rate 0.1250 kg/ha): 0.0 | Herbicidal rating CYPSE ([16]; rate 0.2500 kg/ha): 0.0 | CASOB preemergence herbicidal rating ([17]; rate 0.0156 kg/ha): 0.0 | CASOB preemergence herbicidal rating ([17]; rate 0.0313 kg/ha): 0.0 | CASOB preemergence herbicidal rating ([17]; rate 0.0625 kg/ha): 0.0 | CASOB preemergence herbicidal rating ([17]; rate 0.1250 kg/ha): 1.0 | CASOB preemergence herbicidal rating ([17]; rate 0.2500 kg/ha): 3.0
